Measured values from PubChem BioAssay AID2060887 (Molecular Pharmacology Branch, DTP, NCI, 2025).

System: 782815-120-R-J1-PDC complex spheroid viability
Test: Anticancer human tumor 782815-120-R-J1-PDC patient-derived colon adenocarcinoma cell line growth inhibition [RAS]
Conditions: for IC50: curve of first compound; for viability, T/C: stronger effect = lower value
How it was run: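 Multi-cell-type spheroids: tumor cells plus HUVEC endothelial cells and mesenchymal stem cells. RAS-pathway inhibitors were combined with targeted agents, each dosed in half-log steps down from clinical Cmax, or from 10 microM when Cmax was unknown.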
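Further: spheroids exposed to compounds for 7 days before reading.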
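Wherever viability, T/C is given: 100% = DMSO vehicle control viability.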

`C[C@@H](NC(=O)c1ncnc(N)c1Cl)c1ncc(C(=O)Nc2cc(C(F)(F)F)c(Cl)cn2)s1` + C=CC(=O)N1CCN(c2nc(OCC3CCCN3C)nc3c(F)c(-c4nc(N)cc(C)c4C(F)(F)F)c(Cl)cc23)C(C)C1 showed an IC50 (second compound 0.00316 µM) of over 10000 nM, an IC50 (second compound 0.01 µM) of over 10000 nM and an IC50 (second compound 0.0316 µM) of over 10000 nM. It also gave an IC50 (second compound 0.1 µM) of over 10000 nM, an IC50 (second compound 0.316 µM) of over 10000 nM and an IC50 (second compound 1 µM) of over 10000 nM. It also gave a viability, T/C (second compound 0.00316 µM, first compound 0.0316 µM) of 100%, a viability, T/C (second compound 0.00316 µM, first compound 0.1 µM) of 106% and a viability, T/C (second compound 0.00316 µM, first compound 0.316 µM) of 97%. For the same compound, the viability, T/C (second compound 0.00316 µM, first compound 1 µM) was 86%, the viability, T/C (second compound 0.00316 µM, first compound 3.16 µM) was 83.8% and the viability, T/C (second compound 0.00316 µM, first compound 10 µM) was 72.1%. It also gave a viability, T/C (second compound 0.01 µM, first compound 0.0316 µM) of 104%, a viability, T/C (second compound 0.01 µM, first compound 0.1 µM) of 105% and a viability, T/C (second compound 0.01 µM, first compound 0.316 µM) of 104%. The viability, T/C (second compound 0.01 µM, first compound 1 µM) was 88.6%, the viability, T/C (second compound 0.01 µM, first compound 3.16 µM) was 80.8% and the viability, T/C (second compound 0.01 µM, first compound 10 µM) was 71.8%. It also gave a viability, T/C (second compound 0.0316 µM, first compound 0.0316 µM) of 116%, a viability, T/C (second compound 0.0316 µM, first compound 0.1 µM) of 107% and a viability, T/C (second compound 0.0316 µM, first compound 0.316 µM) of 96.6%. It also gave a viability, T/C (second compound 0.0316 µM, first compound 1 µM) of 90%, a viability, T/C (second compound 0.0316 µM, first compound 3.16 µM) of 90.2% and a viability, T/C (second compound 0.0316 µM, first compound 10 µM) of 71.2%. The viability, T/C (second compound 0.1 µM, first compound 0.0316 µM) was 111%, the viability, T/C (second compound 0.1 µM, first compound 0.1 µM) was 101% and the viability, T/C (second compound 0.1 µM, first compound 0.316 µM) was 96.8%. It also gave a viability, T/C (second compound 0.1 µM, first compound 1 µM) of 99.8%, a viability, T/C (second compound 0.1 µM, first compound 3.16 µM) of 89.9% and a viability, T/C (second compound 0.1 µM, first compound 10 µM) of 66.3%. For the same compound, the viability, T/C (second compound 0.316 µM, first compound 0.0316 µM) was 108%, the viability, T/C (second compound 0.316 µM, first compound 0.1 µM) was 113% and the viability, T/C (second compound 0.316 µM, first compound 0.316 µM) was 97.3%. It also gave a viability, T/C (second compound 0.316 µM, first compound 1 µM) of 101%, a viability, T/C (second compound 0.316 µM, first compound 3.16 µM) of 85% and a viability, T/C (second compound 0.316 µM, first compound 10 µM) of 74.5%. For the same compound, the viability, T/C (second compound 1 µM, first compound 0.0316 µM) was 114%, the viability, T/C (second compound 1 µM, first compound 0.1 µM) was 108% and the viability, T/C (second compound 1 µM, first compound 0.316 µM) was 98.5%. It also gave a viability, T/C (second compound 1 µM, first compound 1 µM) of 110%, a viability, T/C (second compound 1 µM, first compound 3.16 µM) of 92.6% and a viability, T/C (second compound 1 µM, first compound 10 µM) of 65.5%.

In the case of `CC1(C)CCC(Nc2ncc(C(F)(F)F)c(-c3c[nH]c4c(P(C)(C)=O)c(C#N)ccc34)n2)CN1` (stereo unspecified) + CCn1c(-c2cc(N3CCN(C)CC3)cnc2C(C)OC)c2c3cc(ccc31)-c1csc(n1)CC(NC(=O)C1CC1C)C(=O)N1CCCC(N1)C(=O)OCC(C)(C)C2, the IC50 (second compound 0.000949 µM) is reported as 14.6 nM, the IC50 (second compound 0.003 µM) is reported as 2.4 nM and the IC50 (second compound 0.00949 µM) is reported as under 0.949 nM. For the same compound, the IC50 (second compound 0.03 µM) was under 0.949 nM, the IC50 (second compound 0.0949 µM) was under 0.949 nM and the IC50 (second compound 0.3 µM) was under 0.949 nM. The viability, T/C (second compound 0.000949 µM, first compound 0.000949 µM) was 65.1%, the viability, T/C (second compound 0.000949 µM, first compound 0.003 µM) was 61.3% and the viability, T/C (second compound 0.000949 µM, first compound 0.00949 µM) was 54.6%. The viability, T/C (second compound 0.000949 µM, first compound 0.03 µM) was 43%, the viability, T/C (second compound 0.000949 µM, first compound 0.0949 µM) was 36.9% and the viability, T/C (second compound 0.000949 µM, first compound 0.3 µM) was 39.2%. It also gave a viability, T/C (second compound 0.003 µM, first compound 0.000949 µM) of 52.9%, a viability, T/C (second compound 0.003 µM, first compound 0.003 µM) of 54% and a viability, T/C (second compound 0.003 µM, first compound 0.00949 µM) of 44.6%. For the same compound, the viability, T/C (second compound 0.003 µM, first compound 0.03 µM) was 31.3%, the viability, T/C (second compound 0.003 µM, first compound 0.0949 µM) was 34.4% and the viability, T/C (second compound 0.003 µM, first compound 0.3 µM) was 34.2%. The viability, T/C (second compound 0.00949 µM, first compound 0.000949 µM) was 30.3%, the viability, T/C (second compound 0.00949 µM, first compound 0.003 µM) was 30.4% and the viability, T/C (second compound 0.00949 µM, first compound 0.00949 µM) was 25.7%. It also gave a viability, T/C (second compound 0.00949 µM, first compound 0.03 µM) of 22.8%, a viability, T/C (second compound 0.00949 µM, first compound 0.0949 µM) of 19.2% and a viability, T/C (second compound 0.00949 µM, first compound 0.3 µM) of 23.6%. It also gave a viability, T/C (second compound 0.03 µM, first compound 0.000949 µM) of 18.7%, a viability, T/C (second compound 0.03 µM, first compound 0.003 µM) of 18.3% and a viability, T/C (second compound 0.03 µM, first compound 0.00949 µM) of 15.3%. For the same compound, the viability, T/C (second compound 0.03 µM, first compound 0.03 µM) was 14%, the viability, T/C (second compound 0.03 µM, first compound 0.0949 µM) was 13% and the viability, T/C (second compound 0.03 µM, first compound 0.3 µM) was 13.6%. The viability, T/C (second compound 0.0949 µM, first compound 0.000949 µM) was 15.6%, the viability, T/C (second compound 0.0949 µM, first compound 0.003 µM) was 15.6% and the viability, T/C (second compound 0.0949 µM, first compound 0.00949 µM) was 9.83%. For the same compound, the viability, T/C (second compound 0.0949 µM, first compound 0.03 µM) was 10.4%, the viability, T/C (second compound 0.0949 µM, first compound 0.0949 µM) was 10.7% and the viability, T/C (second compound 0.0949 µM, first compound 0.3 µM) was 8.29%. For the same compound, the viability, T/C (second compound 0.3 µM, first compound 0.000949 µM) was 16.3%, the viability, T/C (second compound 0.3 µM, first compound 0.003 µM) was 13.9% and the viability, T/C (second compound 0.3 µM, first compound 0.00949 µM) was 12.5%. For the same compound, the viability, T/C (second compound 0.3 µM, first compound 0.03 µM) was 9.35%, the viability, T/C (second compound 0.3 µM, first compound 0.0949 µM) was 7.69% and the viability, T/C (second compound 0.3 µM, first compound 0.3 µM) was 7.08%.

With `CC(C)n1nc(-c2ccc3oc(N)nc3c2)c2c(N)ncnc21` + CCn1c(-c2cccnc2C(C)OC)c2c3cc(ccc31)N1CCOC(CC(NC(=O)C(C(C)C)N(C)C(=O)C3(F)CCN(C(=O)C#CC(C)(C)N(C)C)CC3)C(=O)N3CCCC(N3)C(=O)OCC(C)(C)C2)C1 the IC50 (second compound 0.000949 µM) was over 100 nM, the IC50 (second compound 0.003 µM) was over 100 nM and the IC50 (second compound 0.00949 µM) was over 100 nM. The IC50 (second compound 0.03 µM) was over 100 nM, the IC50 (second compound 0.0949 µM) was over 100 nM and the IC50 (second compound 0.3 µM) was over 100 nM. It also gave a viability, T/C (second compound 0.000949 µM, first compound 0.000316 µM) of 88.2%, a viability, T/C (second compound 0.000949 µM, first compound 0.001 µM) of 90.7% and a viability, T/C (second compound 0.000949 µM, first compound 0.00316 µM) of 93%. The viability, T/C (second compound 0.000949 µM, first compound 0.01 µM) was 88.2%, the viability, T/C (second compound 0.000949 µM, first compound 0.0316 µM) was 88.1% and the viability, T/C (second compound 0.000949 µM, first compound 0.1 µM) was 76.3%. The viability, T/C (second compound 0.003 µM, first compound 0.000316 µM) was 91.5%, the viability, T/C (second compound 0.003 µM, first compound 0.001 µM) was 107% and the viability, T/C (second compound 0.003 µM, first compound 0.00316 µM) was 91.7%. For the same compound, the viability, T/C (second compound 0.003 µM, first compound 0.01 µM) was 86.4%, the viability, T/C (second compound 0.003 µM, first compound 0.0316 µM) was 84.8% and the viability, T/C (second compound 0.003 µM, first compound 0.1 µM) was 78.2%. The viability, T/C (second compound 0.00949 µM, first compound 0.000316 µM) was 94.8%, the viability, T/C (second compound 0.00949 µM, first compound 0.001 µM) was 102% and the viability, T/C (second compound 0.00949 µM, first compound 0.00316 µM) was 87.3%. For the same compound, the viability, T/C (second compound 0.00949 µM, first compound 0.01 µM) was 94.3%, the viability, T/C (second compound 0.00949 µM, first compound 0.0316 µM) was 87.3% and the viability, T/C (second compound 0.00949 µM, first compound 0.1 µM) was 70.7%. For the same compound, the viability, T/C (second compound 0.03 µM, first compound 0.000316 µM) was 87%, the viability, T/C (second compound 0.03 µM, first compound 0.001 µM) was 99.9% and the viability, T/C (second compound 0.03 µM, first compound 0.00316 µM) was 94.1%. For the same compound, the viability, T/C (second compound 0.03 µM, first compound 0.01 µM) was 93.6%, the viability, T/C (second compound 0.03 µM, first compound 0.0316 µM) was 106% and the viability, T/C (second compound 0.03 µM, first compound 0.1 µM) was 70.5%. It also gave a viability, T/C (second compound 0.0949 µM, first compound 0.000316 µM) of 87.7%, a viability, T/C (second compound 0.0949 µM, first compound 0.001 µM) of 95.2% and a viability, T/C (second compound 0.0949 µM, first compound 0.00316 µM) of 99.6%. It also gave a viability, T/C (second compound 0.0949 µM, first compound 0.01 µM) of 83.7%, a viability, T/C (second compound 0.0949 µM, first compound 0.0316 µM) of 87.8% and a viability, T/C (second compound 0.0949 µM, first compound 0.1 µM) of 78.8%. For the same compound, the viability, T/C (second compound 0.3 µM, first compound 0.000316 µM) was 90.9%, the viability, T/C (second compound 0.3 µM, first compound 0.001 µM) was 92.1% and the viability, T/C (second compound 0.3 µM, first compound 0.00316 µM) was 86.1%. For the same compound, the viability, T/C (second compound 0.3 µM, first compound 0.01 µM) was 90.2%, the viability, T/C (second compound 0.3 µM, first compound 0.0316 µM) was 90.6% and the viability, T/C (second compound 0.3 µM, first compound 0.1 µM) was 69.2%.
